According to PMC6753678, “Fueling Open Innovation for Malaria Transmission-Blocking Drugs: Hundreds of Molecules Targeting Early Parasite Mosquito Stages” (Frontiers in Microbiology, 2019):
Where two headings read alike, the source gives them in different places.

What was measured:
[1] = system: P. falciparum late stage (stages IV-V) gametocytes; design: method as in Almela et al 2016; details: TCAMS screen comparison; ref Almela et al 2016; read-out: Pf GCT ATP IC50; cited from earlier work
HepG2 cells [2] = details: cited from earlier work
[3] = system: P. falciparum female gametocytes; design: method as in Miguel-Blanco et al 2017; details: TCAMS screen comparison; ref Miguel-Blanco et al 2017; read-out: Pf FGAA IC50; cited from earlier work
[4] = system: P. falciparum late stage (stages IV-V) gametocytes; assay: P. falciparum late stage gametocyte ATP depletion assay (Pf GC-ATP); details: 1: YES; 0: NO
HepG2 cells [5] = assay: HepG2 cytotoxicity assay; details: HepG2 cytotoxicity unified across the three screens
Summary of the method: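 Cells are plated at 2,500 per well on compound-treated plates in MEM containing 10% fetal bovine serum and 1% NEAA, then incubated 48 h at 37°C.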

[6] = system: P. falciparum female gametocytes; assay: P. falciparum female gametogenesis assay (Pf FGAA); details: 1: YES; 0: NO
[7] = value reported with the Pf FGAA screen, ref Miguel-Blanco et al 2017
[8] = value reported with the Pf GCT ATP screen, ref Almela et al 2016

| Compound | IC50 [1] | HepG2 cytoxicity (HepG2 cells [2]; [7]) | HepG2 cytoxicity (HepG2 cells [2]; [8]) | IC50 [3] | Is compound selective in assay? Pf GC-ATP active? [4] | Unified cytotox (HepG2 cells [5]) | Is compound selective in assay? Pf FGAA active? [6] |
| --- | --- | --- | --- | --- | --- | --- | --- |
| CC(C)(C)c1ccc(CN2CCC(CNC(=O)c3cc(-c4ccccc4Cl)cs3)C2)cc1.O=C(O)C(F)(F)F (stereo not shown) [TCMDC-134445] | 690 nM | 6.17 µM | 8.3 µM | 1010 nM | 1 (1: YES) | 7.23 µM | 0 (0: NO) |
| CC(C)(C)c1ccc(CN2CCC(CNC(=O)c3cc(-c4cccc(Cl)c4)cs3)C2)cc1.O=C(O)C(F)(F)F (stereo not shown) [TCMDC-134446] | 610 nM | 7.42 µM | 11.3 µM | 990 nM | 1 (1: YES) | 9.36 µM | 0 (0: NO) |
| COc1cccc(-c2csc(C(=O)NCC3CCN(Cc4ccc(C(C)(C)C)cc4)C3)c2)c1.O=C(O)C(F)(F)F (stereo not shown) [TCMDC-134447] | 230 nM | 5.78 µM | 9.5 µM | 650 nM | 1 (1: YES) | 7.64 µM | 1 (1: YES) |
| COc1cccc(OC)c1CN1CCC(N(C)CCCCCCCCN2CCC(OC(=O)Nc3ccccc3-c3ccccc3)CC2)CC1 [TCMDC-134684] | 1040 nM | 1.93 µM | 3.4 µM | 2260 nM | 0 (0: NO) | 2.66 µM | 0 (0: NO) |
| COc1cccc(OC)c1CN1CCC(N(C)CCCCCCCCCN2CCC(OC(=O)Nc3ccccc3-c3ccccc3)CC2)CC1 [TCMDC-134690] | 260 nM | 1.91 µM | <1.56 µM | 1310 nM | 0 (0: NO) | 1.91 µM | 0 (0: NO) |
| Fc1ccc(OC2CN(c3nccc(NCc4ccccc4Cl)n3)C2)cc1 [TCMDC-135110] | 2510 nM | 83.45 µM | >25 µM | 5220 nM | 1 (1: YES) | 83.45 µM | 1 (1: YES) |
| CCn1c(Sc2ccc([N+](=O)[O-])c(C#N)c2)nnc1-c1cccc(Cl)c1 [TCMDC-135234] | 3040 nM | 18.80 µM | >25 µM | 1340 nM | 0 (0: NO) | 18.80 µM | 1 (1: YES) |
| CCn1c(-c2nonc2N)nc2c(-c3cc4ccccc4s3)ncc(C(=O)N3CCC(N)C3)c21.O=C(O)C(F)(F)F (stereo not shown) [TCMDC-135281] | 350 nM | 1.00 µM | 3.5 µM | 450 nM | 0 (0: NO) | 2.25 µM | 0 (0: NO) |
| CNCCNc1nccc(N2CCc3ncnc(Nc4ccc(OCc5cccc(F)c5)c(Cl)c4)c3C2)n1 [TCMDC-135478] | 670 nM | 5.62 µM | 7.16 µM | 1670 nM | 0 (0: NO) | 6.39 µM | 0 (0: NO) |
| COc1ccc(-c2cnc3[nH]cc(-c4ccncc4)c3c2)cc1OC [TCMDC-135853] | 900 nM | 11.79 µM | 3.1 µM | 2260 nM | 0 (0: NO) | 7.44 µM | 0 (0: NO) |
| CCn1c(-c2nonc2N)nc2c(-c3cccc(NC(=O)Nc4cccc(Cl)c4)c3)ncc(OCCCN)c21.O=C(O)C(F)(F)F [TCMDC-136193] | 2170 nM | 80.36 µM | 14.5 µM | 1180 nM | 1 (1: YES) | 47.43 µM | 1 (1: YES) |
| Cl.c1ccc2c(C3CCN(CCCCOc4ccc5c(c4)CCN(CC4CC4)CC5)CC3)c[nH]c2c1 [TCMDC-136244] | 710 nM | 5.15 µM | 6.81 µM | 1150 nM | 0 (0: NO) | 5.98 µM | 0 (0: NO) |
| COc1ccc(Nc2nccc(-c3ccc4ccnc(NCCCCN)c4c3)n2)cc1 [TCMDC-136642] | 330 nM | 14.29 µM | >25 µM | 1510 nM | 1 (1: YES) | 14.29 µM | 0 (0: NO) |
| Cc1cc(OCCN2CCCCC2)ccc1NC(=O)c1cccc2c(=O)n(Cc3ccc(Cl)cc3)cnc12 [TCMDC-136727] | 950 nM | 4.17 µM | 4.73 µM | 1400 nM | 0 (0: NO) | 4.45 µM | 0 (0: NO) |
| CC(C)NCc1ccc(OCc2cccc(COc3ccc(CNC(C)C)cc3I)c2)c(I)c1.Cl [TCMDC-137259] | 210 nM | 1.64 µM | 4.9 µM | 1320 nM | 1 (1: YES) | 3.27 µM | 0 (0: NO) |
| CCCCOc1ccc(CNCCCCCCNCc2ccc(OCCCC)c3ccccc23)c2ccccc12.CS(=O)(=O)O [TCMDC-137281] | 2800 nM | 2.29 µM | 3.04 µM | 400 nM | 0 (0: NO) | 2.67 µM | 0 (0: NO) |
| CS(=O)(=O)O.FC(F)(F)COc1ccc(CCNCCCCNCCc2ccc(OCC(F)(F)F)c3ccccc23)c2ccccc12 [TCMDC-137282] | 26.7 nM | 1.66 µM | 3 µM | 200 nM | 1 (1: YES) | 2.33 µM | 1 (1: YES) |
| CS(=O)(=O)O.FC(F)(F)COc1ccc2ccccc2c1CCNCCCCNCCc1c(OCC(F)(F)F)ccc2ccccc12 [TCMDC-137317] | 1370 nM | 2.09 µM | 3.3 µM | 1010 nM | 0 (0: NO) | 2.70 µM | 0 (0: NO) |
| COc1cc2c(cc1CCNCCCCNCCc1cc3c(cc1OC)CCCC3)CCCC2.CS(=O)(=O)O [TCMDC-137319] | 80 nM | 1.86 µM | <1.56 µM | 890 nM | 1 (1: YES) | 1.86 µM | 0 (0: NO) |
